In US9199965B2, “Benzoimidazole derivatives and pharmaceutical composition comprising the same” (Daewoong Co., Ltd., priority 2005, dated 2015) one finds IC50, inhibition and inhibition in vivo data, which are given here for 20 compounds.

Test [1] deals with T1, human vanilloid-1 (hVR1) (Homo sapiens, UniProt Q8NER1).
T1 construct: expressed in transfected cells; host or cells: HEK293 Tet-on (hVR1-HEK293), doxycycline-induced
The test is described as follows: Calcium influx of vanilloid receptor in hVR1-HEK293 cells (capsaicin-induced, Fluo-3/AM). The following applies: 1 μM capsaicin-induced intracellular calcium influx, read-out: Inhibitory Activity IC50. The class given is cell-based. Here is the method:
Experiments for calcium influx were performed to measure the activity of the compounds as antagonists.
The cell strain hVR1-HEK293 is the human embryonic kidney (HEK) 293 Tet-on cell transfected with a human vanilloid-1 gene (pTRE2hyg-hVR1, 7.8 kb), which is capable of controlling the expression of VR1 according to the administration of deoxycycline, a tetracycline derivative analog. In a medium supplemented with deoxycycline two days before calcium influx experiments, the cell strain was cultured to induce the expression of VR1. After being grown to a confluency of about 80% in T75 flasks, hVR1-HEK293 was detached from the flask using trypsin. Cells harvested by centrifugation were suspended in a medium supplemented with 1 μg/mL of deoxycycline and diluted to a density of 2-4×10^5 cells/mL, after which a 100 μL aliquot of the cell suspension was added to each well of 96 well black plates. Before the measurement of calcium influx, the cells were incubated for two days at 37° C. in a 5% CO2 incubator.
For use in calcium influx experiments, each compound was dissolved in dimethyl sulfoxide (DMSO).
To measure an intracellular calcium influx, cells were incubated at 37° C. for 90 min in a medium containing the calcium indicator Fluo-3/AM so as to allow the fluorescent dye to penetrate into the cells. Then, the cells were washed three times with D-PBS (Dulbecco's phosphate buffered saline) containing 10 mM HEPES to remove the fluorescent dye which remained outside. 193 μL aliquot of D-PBS was added to each well, followed by the addition of various concentrations of compounds thereto. In order to measure the antagonistic activity of the compounds, calcium influx was induced by treatment with 1 μM capsaicin. The inhibitory effect of each compound on 1 μM capsaicin-induced intracellular calcium influx according to compound concentration was measured using a fluorescent analyzer and the data thus obtained were analyzed on the basis of the Hill's equation.
On the technique in general: Calcium assays in cells follow changes in intracellular calcium, usually with a dye or a luminescent sensor.

Test [2] concerns the target T2, rat TRPV1 (Rattus norvegicus, UniProt O35433).
T2 construct: expressed in transfected cells; host or cells: HEK293
The experiment in a line: Assay for inhibitory activity against VR1 patch clamp activity (capsaicin current, inside-out patch). The class given is cell-based. Conditions: 1 μM compound with 10 μM capsaicin; rat TRPV1-transfected HEK293, inside-out patch; relative to capsaicin current before compound. Here is the method:
Each of the compounds synthesized in the examples were dissolved in dimethyl sulfoxide (DMSO) at a concentration of 10 mM. For use in the assay for inhibitory activity against patch clamp activity, the solutions were diluted to a concentration of 1 μM with the same physiological saline as in the pipette solution of Table 1, below.
2) Assay for Inhibitory Activity Against VR1 Patch Clamp Activity
In this experiment, changes in VR1 activity were recorded in current using an electrophysiological technique.
For use in this experiment, a rat TRPV1 cDNA was transfected into a subcultured HEK293 strain with the aid of lipofectamin.
The rat TRPV1 gene-transfected HEK293 cells were detached from the cell culture dishes with trypsin and distributed on a patch clamp recording chamber.
A cover glass slip on the bottom of the patch clamp recording chamber was treated for 15 min or longer with a […] poly-L-lysine solution so that the HEK cells would readily adhere thereto. Cellular membranes were ruptured at room temperature (˜25° C.) from randomly selected HEK cells to perform an inside-out patch clamp technique. 10 μM of capsaicin was fed into the chamber (cytoplasmic side) to activate a capsaicin current through the VR1. When the capsaicin current reached a stable stage, each compound was added along with 10 μM of capsaicin to record the inhibitory activity of the compounds with regard to the current. The inhibition was expressed as percentages.
Detected current was amplified using a Digidata 1200B A/D converter and an Axopatch 1D amplifier (Axon instruments Inc.), and the data were recorded and analyzed with the aid of a computer. The inhibitory activity of each compound was expressed as a percentage relative to the capsaicin current immediately before the administration of each compound.
For orientation: The patch-clamp technique gives a direct electrical read-out from membranes.

The test system of test [3] is ICR male mice (PBQ-induced writhing). The experiment in a line: PBQ-induced writhing test for analgesic effect. The class given is in vivo. Conditions: Mus musculus, 1 h, 20 mg/kg oral, one hour before intraabdominal PBQ (0.02%), read-out: % Inhibition (decrease in number of writhes compared to control). Here is the method: A PBQ-induced writhing test was conducted in mice to assay for the analgesic effect of the novel compounds. Five-week-old ICR male mice were treated with PBQ (phenyl-p-quinone, 0.02%). A suspension of 20 mg of test material in 10 mL of physiological saline was used per kg of weight of mice. Test materials in combination with a carrier were orally administered one hour before the intraabdominal injection of PBQ in a dose of 10 mL per kg weight. From 5 min after the injection, individual mice in each test group were measured for numbers of writhes at regular intervals of 10 min. Analgesic effects of test compounds were expressed as percentages of the decrease in number of writhes compared to a control. [% Inhibition=(Control administered with carrier alone−Group administered with test material)/control administered with carrier alone×100]
For orientation: Writhing tests count abdominal constrictions after an irritant is injected.

T2 sequence (O35433 whole entry): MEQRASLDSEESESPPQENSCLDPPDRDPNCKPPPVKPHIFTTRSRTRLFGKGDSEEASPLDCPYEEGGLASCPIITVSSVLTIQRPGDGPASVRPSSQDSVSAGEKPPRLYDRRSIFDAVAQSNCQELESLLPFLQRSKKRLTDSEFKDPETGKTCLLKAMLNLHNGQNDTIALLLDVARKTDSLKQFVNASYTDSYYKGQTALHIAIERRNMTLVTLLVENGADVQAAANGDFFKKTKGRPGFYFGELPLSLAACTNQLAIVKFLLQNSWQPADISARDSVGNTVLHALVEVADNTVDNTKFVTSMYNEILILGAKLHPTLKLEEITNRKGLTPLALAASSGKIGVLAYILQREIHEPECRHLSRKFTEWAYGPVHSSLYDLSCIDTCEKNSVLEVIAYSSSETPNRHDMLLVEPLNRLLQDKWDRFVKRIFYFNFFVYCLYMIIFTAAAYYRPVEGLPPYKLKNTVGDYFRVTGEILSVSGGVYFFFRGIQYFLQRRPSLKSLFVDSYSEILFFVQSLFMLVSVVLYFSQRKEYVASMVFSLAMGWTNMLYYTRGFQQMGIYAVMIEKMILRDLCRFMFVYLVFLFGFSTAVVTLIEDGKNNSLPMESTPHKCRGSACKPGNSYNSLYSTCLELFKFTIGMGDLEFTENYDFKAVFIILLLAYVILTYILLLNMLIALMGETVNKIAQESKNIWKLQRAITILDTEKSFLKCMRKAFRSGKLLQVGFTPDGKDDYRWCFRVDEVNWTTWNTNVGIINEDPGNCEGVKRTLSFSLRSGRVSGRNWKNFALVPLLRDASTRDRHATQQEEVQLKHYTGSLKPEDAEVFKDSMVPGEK
T1 sequence (Q8NER1 whole entry): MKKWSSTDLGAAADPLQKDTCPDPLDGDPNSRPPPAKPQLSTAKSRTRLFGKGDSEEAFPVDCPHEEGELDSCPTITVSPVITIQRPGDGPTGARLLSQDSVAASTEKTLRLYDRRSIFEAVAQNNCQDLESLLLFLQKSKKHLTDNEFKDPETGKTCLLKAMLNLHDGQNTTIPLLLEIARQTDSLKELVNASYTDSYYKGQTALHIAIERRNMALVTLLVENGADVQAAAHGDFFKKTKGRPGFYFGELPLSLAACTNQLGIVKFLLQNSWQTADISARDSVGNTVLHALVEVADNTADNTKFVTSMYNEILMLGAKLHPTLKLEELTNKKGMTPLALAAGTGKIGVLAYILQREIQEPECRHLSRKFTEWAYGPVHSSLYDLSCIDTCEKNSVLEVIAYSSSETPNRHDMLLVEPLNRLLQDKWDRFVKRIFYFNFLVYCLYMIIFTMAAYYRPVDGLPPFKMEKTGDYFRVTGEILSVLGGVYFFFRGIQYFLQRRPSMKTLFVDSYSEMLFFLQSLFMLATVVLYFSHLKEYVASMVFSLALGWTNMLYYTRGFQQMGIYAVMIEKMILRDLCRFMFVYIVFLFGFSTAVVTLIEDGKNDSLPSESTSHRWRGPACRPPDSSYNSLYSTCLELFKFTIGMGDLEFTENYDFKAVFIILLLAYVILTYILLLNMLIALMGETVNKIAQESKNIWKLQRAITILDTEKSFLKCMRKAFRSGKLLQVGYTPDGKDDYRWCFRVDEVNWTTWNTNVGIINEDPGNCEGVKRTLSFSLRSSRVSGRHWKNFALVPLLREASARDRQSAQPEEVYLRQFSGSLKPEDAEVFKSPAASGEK

As for `FC(F)(F)c1ccc2nc(-c3ccc(-c4ncccc4Cl)cc3)[nH]c2c1` [Compound 1, 2-[4-(3-Chloropyridin-2-yl)-phenyl]-6-trifluoromethyl-1H-benzoimidazole], the IC50 in test [1] turned out to be 130 nM. In test [2], this compound returned an inhibition at 1 µM of 100%. For the same compound, the inhibition in vivo at 20 mg/kg in test [3] amounted to 33%.
Take `CC(C)(C)c1ccc2nc(-c3ccc(-c4ncccc4Cl)cc3)[nH]c2c1` [Compound 3, 6-tert-butyl-2-[4-(3-chloropyridin-2-yl)phenyl]-1H-benzoimidazole]: the IC50 in test [1] was determined as 61 nM. Testing at 1 µM in test [2] gave an inhibition of 100%. Besides, the inhibition in vivo at 20 mg/kg in test [3] was found to be 58%.
In the same order, the values of `FC(F)(F)c1cc(Cl)c2nc(-c3ccc(-c4ncccc4Cl)cc3)[nH]c2c1` [Compound 6, 4-chloro-2-[4-(3-chloropyridin-2-yl)phenyl]-6-trifluoromethyl-1H-benzoimidazole] are 11 nM, 94% and 33%.
On to `Clc1cc2nc(-c3ccc(-c4ncccc4Cl)cc3)[nH]c2cc1Cl` [Compound 12, 2-[4-(3-chloropyridin-2-yl)phenyl]-5,6-dichloro-1H-benzoimidazole], for which the concentration for half-maximal inhibition (IC50) in test [1] is 70 nM. Further, the inhibition in vivo at 20 mg/kg in test [3] stood at 35%.
For the compound `CC(C)(C)c1ccc2nc(-c3ccc(-c4ncc(Cl)cc4Cl)cc3)[nH]c2c1` [Compound 25, 6-tert-butyl-2-[4-(3,5-dichloropyridin-2-yl)phenyl]-1H-benzoimidazole], the IC50 in test [1] stood at 100 nM. Further, in test [3], the inhibition in vivo at 20 mg/kg is 23%.
Consider `CS(=O)(=O)Nc1ccc(-c2ccc(-c3nc4c(C(F)(F)F)cc(C(F)(F)F)cc4[nH]3)cc2)cc1F` [Compound 29, N-[4′-(4,6-bistrifluoromethyl-1H-benzoimidazole-2-yl)-3-fluorobiphenyl-4-yl]methanesulfonamide], for which the IC50 in test [1] amounted to 4 nM. Besides, in test [2], the inhibition at 1 µM was 50%. Further, in test [3], the inhibition in vivo at 20 mg/kg was 41%.
The matching figures for `FC(F)(F)c1cc(Cl)c2nc(-c3ccc(-c4ncccc4C(F)(F)F)cc3)[nH]c2c1` [Compound 31, 4-chloro-6-trifluoromethyl-2-[4-(3-trifluoromethylpyridin-2-yl)phenyl]-1H-benzoimidazole]: 8 nM, 66% and 35%.
The matching figures for `FC(F)(F)c1cc(C(F)(F)F)c2nc(-c3ccc(-c4ncccc4C(F)(F)F)cc3)[nH]c2c1` [Compound 33, 4,6-bistrifluoromethyl-2-[4-(3-trifluoromethylpyridin-2-yl)phenyl]-1H-benzoimidazole]: 10 nM, 10% and 31%.
On to `FC(F)(F)c1cc(Br)c2nc(-c3ccc(-c4ncccc4C(F)(F)F)cc3)[nH]c2c1` [Compound 36, 4-bromo-6-(trifluoromethyl)-2-(4-(3-(trifluoromethyl)pyridin-2-yl)phenyl)-1H-benzoimidazole], for which the 50% inhibitory concentration (IC50) in test [1] came to 94 nM. Moreover, the inhibition in vivo at 20 mg/kg in test [3] is 70%.
In the same order, the values of `FC(F)(F)c1cccnc1-c1ccc(-c2nc3ccc(Br)cc3[nH]2)cc1` [Compound 37, 6-bromo-2-(4-(3-(trifluoromethyl)pyridin-2-yl)phenyl)-1H-benzoimidazole] are 75 nM and 50%.
In the case of `CC(C)(C)c1ccc2nc(-c3ccc(-c4ncccc4Cl)cc3F)[nH]c2c1` [Compound 67, 6-tert-butyl-2-[4-(3-chloropyridin-2-yl)-2-fluorophenyl]-1H-benzoimidazole], the half-maximal inhibitory concentration (IC50) in test [1] was found to be 122 nM. Moreover, in test [2], testing at 1 µM gave an inhibition of 80%. Besides, the inhibition in vivo at 20 mg/kg in test [3] was 23%.
Consider `CC(C)(C)c1ccc2nc(-c3ccc(-c4ncccc4Cl)c4ccccc34)[nH]c2c1` [Compound 105, 6-tert-butyl-2-[4-(3-chloropyridin-2-yl)naphthalen-1-yl]-1H-benzoimidazole], for which the IC50 in test [1] is 24 nM. Also, the inhibition at 1 µM in test [2] is 78%. In addition, in test [3], the inhibition in vivo at 20 mg/kg turned out to be 50%.
As to `FC(F)(F)c1cnc2nc(-c3ccc(-c4ncccc4Cl)c4ccccc34)[nH]c2c1` [Compound 107, 2-[4-(3-chloropyridin-2-yl)naphthalen-1-yl]-6-trifluoromethyl-1H-imidazo[4,5-b]pyridine], the IC50 in test [1] amounted to 17 nM. Also, 1 µM produced 97% inhibition in test [2]. Further, the inhibition in vivo at 20 mg/kg in test [3] stood at 46%.
With `FC(F)(F)c1cc(Cl)c2nc(-c3ccc(-c4ncccc4Cl)cn3)[nH]c2c1` [Compound 138, 3-chloro-6′-(4-chloro-6-trifluoromethyl-1H-benzoimidazole-2-yl)-[2,3′]bipyridine], in test [1], the IC50 was determined as 16 nM. In test [2], at 1 µM the inhibition was 73%. Besides, the inhibition in vivo at 20 mg/kg in test [3] is 22%.
In the same order, the values of `FC(F)(F)c1cc(C(F)(F)F)c2nc(-c3ccc(-c4ncccc4Cl)cn3)[nH]c2c1` [Compound 139, 6′-(4,6-bistrifluoromethyl-1H-benzoimidazole-2-yl)-3-chloro-[2,3′]bipyridine] are 38 nM, 89% and 26%.
In the same order, the values of `FC(F)(F)c1ccc2nc(-c3ccc(-c4ncccc4C(F)(F)F)cn3)[nH]c2c1` [Compound 158, 3-trifluoromethyl-6′-(6-trifluoromethyl-1H-benzoimidazole-2-yl)-[2,3′]bipyridine] are 14 nM, 69% and 53%.
For `FC(F)(F)c1cccnc1-c1ccc(-c2nc3cc(Cl)c(Cl)cc3[nH]2)nc1` [Compound 163, 6′-(5,6-dichloro-1H-benzoimidazole-2-yl)-3-trifluoromethyl-[2,3′]bipyridine], the IC50 in test [1] came out at 15 nM. Further, in test [3], the inhibition in vivo at 20 mg/kg was 41%.
In the same order, the values of `FC(F)(F)c1cc(Br)c2nc(-c3ccc(-c4ncccc4C(F)(F)F)cn3)[nH]c2c1` [Compound 164, 4-bromo-6-(trifluoromethyl)-2-(5-(3-(trifluoromethyl)pyridin-2-yl)pyridin-2-yl)-1H-benzoimidazole] are 9 nM and 53%.
For `FC(F)(F)c1cccnc1-c1ccc(-c2nc3ccc(Br)cc3[nH]2)nc1` [Compound 165, 6-bromo-2-(5-(3-(trifluoromethyl)pyridin-2-yl)pyridin-2-yl)-1H-benzoimidazole], the IC50 in test [1] stood at 28 nM. For the same compound, the inhibition in vivo at 20 mg/kg in test [3] was found to be 60%.
For the compound `FC(F)(F)c1cccnc1-c1ccc(-c2nc3ccc(N4CCOCC4)cc3[nH]2)nc1` [Compound 169, 6′-(6-morpholin-4-yl-1H-benzoimidazo-2-yl)-3-trifluoromethyl-[2,3′]bipyridine], in test [3], the inhibition in vivo at 20 mg/kg is 57%.

The IC50 is the concentration needed to halve the response being measured. As usually defined, the inhibition is the relative decrease from the control value, in per cent. A low value points to a weak effect.
